Source: patent US4698338A, “7[2-(2-aminothiazol-4-yl)-2-benzyloximino]acetamido-3[4-al kyl-5-oxo-6-hydroxy-3,4-dihydro-1,2,4-triazin-3-yl]thiomethyl cephalosporins” (Eli Lilly and Company, priority 1986, dated 1987)
≈ marks a conversion by molar mass, not a printed value. Where two headings read alike, the source gives them in different places.

Experiments:
Assay in all cases: standard agar dilution in vitro test
Assay type in all cases: cell-based
Proteus inconstans PR33 = settings: Providencia alcalifaciens
From the text: (§1) The antibacterial activity of the compounds of the formula 1 is illustrated by the data presented in Table 2 for two such compounds. The data presented are the minimum inhibitory concentrations (μg/ml) against representative pathogens obtained in the standard agar dilution in vitro test.

[1] = tested on: Citrobacter freundii CF17; settings: read-out: Minimum Inhibitory Concentration
From the text: as §1

[2] = tested on: Pseudomonas aeruginosa PS18; settings: read-out: Minimum Inhibitory Concentration
From the text: as §1

[3] = tested on: Streptococcus Group D 2041; settings: GROUPD2041, read-out: Minimum Inhibitory Concentration
From the text: as §1

Enterobacter cloacae EB5 = settings: read-out: Minimum Inhibitory Concentration
From the text: as §1

[4] = tested on: Pseudomonas aeruginosa X528; settings: read-out: Minimum Inhibitory Concentration
From the text: as §1

[5] = tested on: Streptococcus pyogenes C203; settings: read-out: Minimum Inhibitory Concentration
From the text: as §1

Escherichia coli EC14 = tested on: Escherichia coli EC14
From the text: as §1

Proteus rettgeri C24 = settings: Providencia rettgeri
From the text: as §1

[6] = tested on: Staphylococcus epidermidis EPi1; settings: read-out: Minimum Inhibitory Concentration
From the text: as §1

Escherichia coli N10 = settings: read-out: Minimum Inhibitory Concentration
From the text: as §1

Salmonella typhi X514 = settings: Salmonella enterica, read-out: Minimum Inhibitory Concentration
From the text: as §1

[7] = tested on: Streptococcus pneumoniae Park I; settings: read-out: Minimum Inhibitory Concentration
From the text: as §1

[8] = tested on: Streptococcus Group D X66; settings: read-out: Minimum Inhibitory Concentration
From the text: as §1

[9] = tested on: Enterobacter aerogenes EB17; settings: Klebsiella aerogenes, read-out: Minimum Inhibitory Concentration
From the text: as §1

Serratia marcescens SE3 = settings: read-out: Minimum Inhibitory Concentration
From the text: as §1

[10] = tested on: Staphylococcus aureus X400; settings: read-out: Minimum Inhibitory Concentration
From the text: as §1

[11] = tested on: Haemophilus influenzae 76; settings: read-out: Minimum Inhibitory Concentration
From the text: as §1

[12] = tested on: Staphylococcus aureus X1.1; settings: read-out: Minimum Inhibitory Concentration
From the text: as §1

[13] = tested on: Acinetobacter calcoaceticus AC12; settings: read-out: Minimum Inhibitory Concentration
From the text: as §1

[14] = tested on: Klebsiella pneumoniae X26; settings: read-out: Minimum Inhibitory Concentration
From the text: as §1

[15] = tested on: Klebsiella pneumoniae KAE; settings: read-out: Minimum Inhibitory Concentration
From the text: as §1

[16] = tested on: Enterobacter cloacae 265A; settings: read-out: Minimum Inhibitory Concentration
From the text: as §1

[17] = tested on: Staphylococcus epidermidis 222; settings: read-out: Minimum Inhibitory Concentration
From the text: as §1

Serratia marcescens X99 = settings: read-out: Minimum Inhibitory Concentration
From the text: as §1

[18] = tested on: Klebsiella pneumoniae X68
From the text: as §1

Shigella sonnei N9 = settings: read-out: Minimum Inhibitory Concentration
From the text: as §1

Escherichia coli TEM = settings: read-out: Minimum Inhibitory Concentration
From the text: as §1

[19] = tested on: Pseudomonas aeruginosa X239; settings: read-out: Minimum Inhibitory Concentration
From the text: as §1

[20] = tested on: Staphylococcus aureus 513E; settings: read-out: Minimum Inhibitory Concentration
From the text: as §1

[21] = tested on: Enterobacter aerogenes C32; settings: Klebsiella aerogenes, read-out: Minimum Inhibitory Concentration
From the text: as §1

[22] = tested on: Pseudomonas aeruginosa PS72; settings: read-out: Minimum Inhibitory Concentration
From the text: as §1

[23] = tested on: Haemophilus influenzae C.L.; settings: read-out: Minimum Inhibitory Concentration
From the text: as §1

[24] = tested on: Staphylococcus aureus V41; settings: read-out: Minimum Inhibitory Concentration
From the text: as §1

Proteus morganii PR15 = settings: Morganella morganii, read-out: Minimum Inhibitory Concentration
From the text: as §1

Salmonella typhi 1335 = settings: Salmonella enterica, read-out: Minimum Inhibitory Concentration
From the text: as §1

Compound `Cn1nc(O)c(=O)nc1SCC1=C(C(=O)O)N2C(=O)[C@@H](NC(=O)/C(=N\OCc3cc(Cl)ccc3Cl)c3csc(N)n3)[C@H]2SC1` [Test Compound B, 7β-[2-(2-Aminothiazol-4-yl)-2-(2,5-dichlorobenzyloxyimino)acetamido]-3-[(2,5-dihydro-6-hydroxy-2-methyl-5-oxo-1,2,4-triazin-3-yl)thiomethyl]-3-cephem-4-carboxylic acid] has an MIC (Proteus inconstans PR33; Proteus inconstans PR33, agar dilution, read-out: Minimum Inhibitory Concentration) of 0.25 µg/mL (≈ 0.357 µM), an MIC [1] of 2 µg/mL (≈ 2.86 µM) and an MIC [2] of 32 µg/mL (≈ 45.7 µM). It also gave an MIC [3] of 0.5 µg/mL (≈ 0.715 µM), an MIC (Enterobacter cloacae EB5) of 0.25 µg/mL (≈ 0.357 µM) and an MIC [4] of 64 µg/mL (≈ 91.5 µM). It also gave an MIC [5] of less than 0.008 µg/mL, an MIC (Escherichia coli EC14; Escherichia coli EC14, agar dilution, read-out: Minimum Inhibitory Concentration) of 0.25 µg/mL (≈ 0.357 µM) and an MIC (Proteus rettgeri C24; Proteus rettgeri C24, agar dilution, read-out: Minimum Inhibitory Concentration) of 0.5 µg/mL (≈ 0.715 µM). For the same compound, the MIC [6] was 8 µg/mL (≈ 11.4 µM), the MIC (Escherichia coli N10) was 0.25 µg/mL (≈ 0.357 µM) and the MIC (Salmonella typhi X514) was 0.25 µg/mL (≈ 0.357 µM). It also gave an MIC [7] of less than 0.008 µg/mL, an MIC [8] greater than 128 µg/mL and an MIC [9] of 1 µg/mL (≈ 1.43 µM). The MIC (Serratia marcescens SE3) was 2 µg/mL (≈ 2.86 µM), the MIC [10] was 32 µg/mL (≈ 45.7 µM) and the MIC [11] was 0.015 µg/mL (≈ 0.0214 µM). The MIC [12] was 0.5 µg/mL (≈ 0.715 µM), the MIC [13] was 2 µg/mL (≈ 2.86 µM) and the MIC [14] was 0.06 µg/mL (≈ 0.0858 µM). The MIC [15] was 16 µg/mL (≈ 22.9 µM), the MIC [16] was 128 µg/mL (≈ 183 µM) and the MIC [17] was 0.5 µg/mL (≈ 0.715 µM). It also gave an MIC (Serratia marcescens X99) of 1 µg/mL (≈ 1.43 µM), an MIC ([18]; Klebsiella pneumoniae X68, agar dilution, read-out: Minimum Inhibitory Concentration) of 0.25 µg/mL (≈ 0.357 µM) and an MIC (Shigella sonnei N9) of 0.5 µg/mL (≈ 0.715 µM). For the same compound, the MIC (Escherichia coli TEM) was 0.06 µg/mL (≈ 0.0858 µM), the MIC [19] was 8 µg/mL (≈ 11.4 µM) and the MIC [20] was 4 µg/mL (≈ 5.72 µM). It also gave an MIC [21] of 0.25 µg/mL (≈ 0.357 µM), an MIC [22] of 16 µg/mL (≈ 22.9 µM) and an MIC [23] of 0.03 µg/mL (≈ 0.0429 µM). It also gave an MIC [24] of 4 µg/mL (≈ 5.72 µM), an MIC (Proteus morganii PR15) of 0.5 µg/mL (≈ 0.715 µM) and an MIC (Salmonella typhi 1335) of 1 µg/mL (≈ 1.43 µM).

`Cn1nc(O)c(=O)nc1SCC1=C(C(=O)O)N2C(=O)[C@@H](NC(=O)/C(=N\OCc3ccc(O)cc3)c3csc(N)n3)[C@H]2SC1` [Test Compound A, 7β-[2-(2-Aminothiazol-4-yl)-2-(4-hydroxybenzyloxyimino)acetamido]-3-[(2,5-dihydro-6-hydroxy-2-methyl5-oxo-1,2,4-triazin-3-yl)thiomethyl]-3-cephem-4carboxylic acid] showed an MIC (Proteus inconstans PR33; PR33, read-out: Minimum Inhibitory Concentration) of 0.125 µg/mL (≈ 0.193 µM), an MIC [1] of 4 µg/mL (≈ 6.19 µM) and an MIC [2] of 16 µg/mL (≈ 24.7 µM). For the same compound, the MIC [3] was 1 µg/mL (≈ 1.55 µM), the MIC (Enterobacter cloacae EB5) was 0.5 µg/mL (≈ 0.773 µM) and the MIC [4] was 128 µg/mL (≈ 198 µM). It also gave an MIC [5] of less than 0.008 µg/mL, an MIC (Escherichia coli EC14; Escherichia coli, EC14, read-out: Minimum Inhibitory Concentration) of 0.125 µg/mL (≈ 0.193 µM) and an MIC (Proteus rettgeri C24; C24, read-out: Minimum Inhibitory Concentration) of 0.125 µg/mL (≈ 0.193 µM). For the same compound, the MIC [6] was 8 µg/mL (≈ 12.4 µM), the MIC (Escherichia coli N10) was 0.25 µg/mL (≈ 0.387 µM) and the MIC (Salmonella typhi X514) was 0.125 µg/mL (≈ 0.193 µM). The MIC [7] was less than 0.008 µg/mL, the MIC [8] was 128 µg/mL (≈ 198 µM) and the MIC [9] was 0.5 µg/mL (≈ 0.773 µM). For the same compound, the MIC (Serratia marcescens SE3) was 4 µg/mL (≈ 6.19 µM), the MIC [10] was 16 µg/mL (≈ 24.7 µM) and the MIC [12] was 1 µg/mL (≈ 1.55 µM). For the same compound, the MIC [13] was 16 µg/mL (≈ 24.7 µM), the MIC [14] was 0.06 µg/mL (≈ 0.0928 µM) and the MIC [15] was 16 µg/mL (≈ 24.7 µM). For the same compound, the MIC [16] was 128 µg/mL (≈ 198 µM), the MIC [17] was 2 µg/mL (≈ 3.09 µM) and the MIC (Serratia marcescens X99) was 0.5 µg/mL (≈ 0.773 µM). It also gave an MIC ([18]; Klebsiella pneumoniae, X68, read-out: Minimum Inhibitory Concentration) of 0.125 µg/mL (≈ 0.193 µM), an MIC (Shigella sonnei N9) of 0.125 µg/mL (≈ 0.193 µM) and an MIC (Escherichia coli TEM) of 0.03 µg/mL (≈ 0.0464 µM). For the same compound, the MIC [19] was 8 µg/mL (≈ 12.4 µM), the MIC [20] was 8 µg/mL (≈ 12.4 µM) and the MIC [21] was 0.25 µg/mL (≈ 0.387 µM). The MIC [22] was 64 µg/mL (≈ 99 µM), the MIC [23] was 0.03 µg/mL (≈ 0.0464 µM) and the MIC [24] was 8 µg/mL (≈ 12.4 µM). The MIC (Proteus morganii PR15) was 1 µg/mL (≈ 1.55 µM) and the MIC (Salmonella typhi 1335) was 0.25 µg/mL (≈ 0.387 µM).
